Patent US9096560B2, “5-heterocyclylalkyl-3-hydroxy-2-phenylcyclopent-2-enones as herbicides” (Syngenta Limited, priority 2008, dated 2015)

Columns and labels:
Assay type in all cases: in vivo
[1] = test system: Lolium perenne (LOLPE); experiment: Example B pre-emergence herbicidal test, LOLPE; settings: Lolium perenne, 312 h, rate 250 g/ha, evaluated after 13 days, 100=total damage to plant, 0=no damage to plant
Procedure, shortened: (§1)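 Pre-emergence spray one day after sowing; vehicle acetone/water (50:50), 0.5% Tween 20. Percent damage (0 = no effect, 100 = plant killed) recorded 13 days later.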

[2] = test system: Alopecurus myosuroides (ALOMY); experiment: Example B pre-emergence herbicidal test, ALOMY; settings: Alopecurus myosuroides, 312 h, rate 250 g/ha, evaluated after 13 days, 100=total damage to plant, 0=no damage to plant
Procedure, shortened: as §1

[3] = test system: Echinochloa crus-galli (ECHCG); experiment: Example B pre-emergence herbicidal test, ECHCG; settings: Echinochloa crus-galli, 312 h, rate 250 g/ha, evaluated after 13 days, 100=total damage to plant, 0=no damage to plant
Procedure, shortened: as §1

[4] = test system: Avena fatua (AVEFA); experiment: Example B pre-emergence herbicidal test, AVEFA; settings: Avena fatua, 312 h, rate 250 g/ha, evaluated after 13 days, 100=total damage to plant, 0=no damage to plant
Procedure, shortened: as §1

[5] = test system: Lolium perenne (LOLPE); experiment: Example B post-emergence herbicidal test, LOLPE; settings: Lolium perenne, 312 h, rate 250 g/ha, evaluated after 13 days, scale 0-100, read-out: Post-emergence activity LOLPE (100=total damage to plant; 0=no damage to plant)
Procedure, shortened: (§2)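 Plants grown from seed in standard soil for 8 days in a glasshouse (24/16 °C day/night, 14 h light, 65% humidity), then sprayed with an aqueous solution from the active ingredient formulated in acetone/water (50:50) with 0.5% Tween 20. Damage scored after 13 days, 0 (none) to 100 (total).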

[6] = test system: Alopecurus myosuroides (ALOMY); experiment: Example B post-emergence herbicidal test, ALOMY; settings: Alopecurus myosuroides, 312 h, rate 250 g/ha, evaluated after 13 days, scale 0-100, read-out: Post-emergence activity ALOMY (100=total damage to plant; 0=no damage to plant)
Procedure, shortened: as §2

[7] = test system: Echinochloa crus-galli (ECHCG); experiment: Example B post-emergence herbicidal test, ECHCG; settings: Echinochloa crus-galli, 312 h, rate 250 g/ha, evaluated after 13 days, scale 0-100, read-out: Post-emergence activity ECHCG (100=total damage to plant; 0=no damage to plant)
Procedure, shortened: as §2

[8] = test system: Avena fatua (AVEFA); experiment: Example B post-emergence herbicidal test, AVEFA; settings: Avena fatua, 312 h, rate 250 g/ha, evaluated after 13 days, scale 0-100, read-out: Post-emergence activity AVEFA (100=total damage to plant; 0=no damage to plant)
Procedure, shortened: as §2

Compound	pest or weed control at 250 g/ha [1] [%]	pest or weed control at 250 g/ha [2] [%]	pest or weed control at 250 g/ha [3] [%]	pest or weed control at 250 g/ha [4] [%]	pest or weed control at 250 g/ha [5] [%]	pest or weed control at 250 g/ha [6] [%]	pest or weed control at 250 g/ha [7] [%]	pest or weed control at 250 g/ha [8] [%]
Cc1cc(C)c(C2C(=O)C(C)C(CC3CCOC3)C2=O)c(C)c1 (stereo not drawn) [Compound T29]	100	70	90	50	90	70	80	60
Cc1cc(C)c(C2C(=O)CC(CC3CCN(C(=O)c4ccccc4)CC3)C2=O)c(C)c1 (stereo not drawn) [Compound T70]	70	20	60	70	80	70	80	100
Cc1cc(C)c(C2C(=O)CC(CCC3CCOCC3)C2=O)c(C)c1 (stereo not drawn) [Compound T21]	100	100	90	70	90	90	80	90
Cc1cc(C)c(C2C(=O)CC(CC3CCN(S(=O)(=O)C(C)C)CC3)C2=O)c(C)c1 (stereo not drawn) [Compound T93]	90	60	90	60	70	60	60	70
Cc1cc(C)c(C2C(=O)CC(CC3CCN(c4ccc(Cl)cc4)CC3)C2=O)c(C)c1 (stereo not drawn) [Compound T60]	10	10	0	0	20	30	10	10
Cc1cc(C)c(C2C(=O)C/C(=C\C3CCN(C(=O)c4ccccc4)C3)C2=O)c(C)c1 (stereo not drawn) [Compound T34]	90	70	100	70	90	90	100	100
Cc1cc(C)c(C2C(=O)CC(CC3CCN(C(=O)Oc4ccccc4)CC3)C2=O)c(C)c1 (stereo not drawn) [Compound T68]	90	30	50	40	90	60	90	90
Cc1cc(C)c(C2C(=O)CC(CC3CCN(C(=O)OC(C)C)CC3)C2=O)c(C)c1 (stereo not drawn) [Compound T107]	70	80	70	60	90	70	60	90
Cc1cc(C)c(C2=C(OC(=O)c3c(C)noc3C)CC(CC3CCN(C(=O)c4c(C)noc4C)C3)C2=O)c(C)c1 (stereo not drawn) [Compound P63]	70	50	70	40	80	90	70	90
Cc1cc(C)c(C2C(=O)CC(CC3CCN(C(=O)C(C)Cl)CC3)C2=O)c(C)c1 (stereo not drawn) [Compound T87]	100	90	60	90	90	70	70	90
Cc1cc(C)c(C2C(=O)C/C(=C\C3CC[S+]([O-])CC3)C2=O)c(C)c1 (stereo not drawn) [Compound T11]	70	30	20	0	50	60	70	30
Cc1cc(C)c(C2=C(OC(=O)C(C)C)CC(CC3CCN(C(=O)C(C)C)C3)C2=O)c(C)c1 (stereo not drawn) [Compound P58]	80	70	80	70	90	90	70	90
Cc1cc(-c2ccc(Cl)cc2F)cc(C)c1C1C(=O)C/C(=C\C2CCOC2)C1=O (stereo not drawn) [Compound T135]	40	0	60	30	70	80	90	80
Cc1cc(-c2ccc(F)cc2)cc(C)c1C1C(=O)CC(CC2CCOCC2)C1=O (stereo not drawn) [Compound T63]	100	70	100	90	90	90	90	100
Cc1cc(C)c(C2C(=O)CC(CC3CCN(S(=O)(=O)c4ccc(Cl)cc4)CC3)C2=O)c(C)c1 (stereo not drawn) [Compound T92]	30	30	40	10	20	30	40	60
Cc1cc(C)c(C2C(=O)CC(CC3CCN(S(=O)(=O)C(F)(F)F)CC3)C2=O)c(C)c1 (stereo not drawn) [Compound T112]	50	40	30	20	30	40	30	30
COc1ccc(C(=O)N2CCC(CC3CC(=O)C(c4c(C)cc(C)cc4C)C3=O)CC2)cc1 (stereo not drawn) [Compound T97]	70	30	60	30	60	70	80	70
CCOC(=O)N1CCC(CC2CC(=O)C(c3c(C)cc(C)cc3C)C2=O)CC1 (stereo not drawn) [Compound T108]	50	10	60	40	70	70	40	70
Cc1cc(C)c(C2C(=O)CC(CC3CCC(C)O3)C2=O)c(C)c1 (stereo not drawn) [Compound T26]	100	70	100	60	80	60	60	70
Cc1cc(C)c(C2=C(OC(=O)C(C)(C)C)CC(CCC3CCOCC3)C2=O)c(C)c1 (stereo not drawn) [Compound P34]	100	90	100	90	100	80	60	90
Cc1cc(C)c(C2C(=O)CC(CC3CCN(S(C)(=O)=O)C3)C2=O)c(C)c1 (stereo not drawn) [Compound T36]	90	90	100	90	80	80	90	90
